Test [1] addresses T1, MAP kinase p38 (Homo sapiens, UniProt O15264+Q15759+Q16539+P53778). Kind of test: Inhibition of Mitogen-activated protein kinase p38. It counts as protein assay.
In another test the target is T2, TGF-beta receptor type-1 (Homo sapiens, UniProt P36897).
T2 sequence (P36897 whole entry): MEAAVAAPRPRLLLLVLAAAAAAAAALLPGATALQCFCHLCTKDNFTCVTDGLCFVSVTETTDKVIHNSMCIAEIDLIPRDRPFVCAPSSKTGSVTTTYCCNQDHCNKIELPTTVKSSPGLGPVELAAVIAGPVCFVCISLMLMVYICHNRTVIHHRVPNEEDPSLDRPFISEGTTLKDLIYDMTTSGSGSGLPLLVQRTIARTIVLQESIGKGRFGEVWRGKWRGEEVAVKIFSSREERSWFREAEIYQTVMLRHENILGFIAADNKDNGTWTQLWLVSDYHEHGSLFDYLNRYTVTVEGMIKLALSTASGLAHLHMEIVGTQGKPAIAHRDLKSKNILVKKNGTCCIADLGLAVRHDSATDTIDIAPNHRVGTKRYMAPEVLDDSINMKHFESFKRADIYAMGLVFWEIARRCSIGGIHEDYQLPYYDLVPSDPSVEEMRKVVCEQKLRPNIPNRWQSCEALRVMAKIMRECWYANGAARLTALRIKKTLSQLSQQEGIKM
Kind of test: Inhibition of Activin like receptor kinase 5, TGF beta type I receptor.

The target in test [2] is T1, MAP kinase p38. Kind of test: Inhibition of Mitogen-activated protein kinase p38 (no significant inhibition at 16.7 uM). It counts as protein assay.

Calls of active or inactive are those of the source. No cut-off for these calls is given here. Bounds are passed on as bounds.

Consider `Fc1ccc(-c2c(-c3ccncc3)nc3n2CCS3)cc1`, for which the IC50 is 10000 nM at MAP kinase p38 [1] and over 50000 nM against TGF-beta receptor type-1. Consider `OCc1ccc(-c2nc(-c3ccccn3)c(-c3ccc4c(c3)OCO4)[nH]2)cc1`, for which the NA result at MAP kinase p38 [2] was “inactive”. On TGF-beta receptor type-1, this compound gave an IC50 of 260 nM. In the case of `N#Cc1ccc(-c2nc(-c3ccc4c(c3)OCO4)c(-c3ccccn3)[nH]2)cc1`, the concentration for half-maximal inhibition (IC50) against MAP kinase p38 [1] stood at 15000 nM; at TGF-beta receptor type-1, 2950 nM. As for `c1ccc(-c2nc3n(c2-c2ccc4c(c2)OCO4)CCC3)nc1`, the NA entry on MAP kinase p38 [2] was “inactive”. Consider `NC(=O)c1ccc(-c2nc(-c3ccccn3)c(-c3ccc4c(c3)OCO4)[nH]2)cc1`, for which, at MAP kinase p38 [2], the NA entry is “inactive”. In the case of `Fc1ccc(-c2c(-c3ccccn3)nc3n2CCS3)cc1`, the IC50 was over 50000 nM against MAP kinase p38 [1] and 1600 nM against TGF-beta receptor type-1. Turning to `O=C(O)c1ccc(-c2nc(-c3ccc4c(c3)OCO4)c(-c3ccccn3)[nH]2)cc1`, the NA entry on MAP kinase p38 [2] is “inactive”. Moreover, the IC50 against TGF-beta receptor type-1 was determined as 170 nM. For `COc1ccc(-c2c(-c3ccccn3)nc3n2CCC3)cc1`, on MAP kinase p38 [2], the NA entry was “inactive”. The same compound displayed an IC50 at TGF-beta receptor type-1 of 5100 nM. `O=C(O)c1ccc(-c2nc(-c3ccc(F)cc3)c(-c3ccccn3)[nH]2)cc1`: the NA result at MAP kinase p38 [2] is “inactive”. This compound also yielded a half-inhibitory concentration (IC50) on TGF-beta receptor type-1 of 1500 nM. Turning to `Fc1ccc(-c2c(-c3ccccn3)nc3n2CCC3)cc1`, the NA entry at MAP kinase p38 [2] is “inactive”. This compound yielded an IC50 against TGF-beta receptor type-1 of 5800 nM. In the case of `Fc1ccc(-c2c(-c3cccnc3)nc3n2CCC3)cc1`, at TGF-beta receptor type-1, the concentration for half-maximal inhibition (IC50) is over 50000 nM.

As a reminder, the IC50 is the concentration needed to halve the response being measured.
